For assay [1], the target named is T1, 15-LO (Glycine max, UniProt P08170).
T1 construct: purchased Sigma Chemical Company
T1 sequence (P08170 1-839): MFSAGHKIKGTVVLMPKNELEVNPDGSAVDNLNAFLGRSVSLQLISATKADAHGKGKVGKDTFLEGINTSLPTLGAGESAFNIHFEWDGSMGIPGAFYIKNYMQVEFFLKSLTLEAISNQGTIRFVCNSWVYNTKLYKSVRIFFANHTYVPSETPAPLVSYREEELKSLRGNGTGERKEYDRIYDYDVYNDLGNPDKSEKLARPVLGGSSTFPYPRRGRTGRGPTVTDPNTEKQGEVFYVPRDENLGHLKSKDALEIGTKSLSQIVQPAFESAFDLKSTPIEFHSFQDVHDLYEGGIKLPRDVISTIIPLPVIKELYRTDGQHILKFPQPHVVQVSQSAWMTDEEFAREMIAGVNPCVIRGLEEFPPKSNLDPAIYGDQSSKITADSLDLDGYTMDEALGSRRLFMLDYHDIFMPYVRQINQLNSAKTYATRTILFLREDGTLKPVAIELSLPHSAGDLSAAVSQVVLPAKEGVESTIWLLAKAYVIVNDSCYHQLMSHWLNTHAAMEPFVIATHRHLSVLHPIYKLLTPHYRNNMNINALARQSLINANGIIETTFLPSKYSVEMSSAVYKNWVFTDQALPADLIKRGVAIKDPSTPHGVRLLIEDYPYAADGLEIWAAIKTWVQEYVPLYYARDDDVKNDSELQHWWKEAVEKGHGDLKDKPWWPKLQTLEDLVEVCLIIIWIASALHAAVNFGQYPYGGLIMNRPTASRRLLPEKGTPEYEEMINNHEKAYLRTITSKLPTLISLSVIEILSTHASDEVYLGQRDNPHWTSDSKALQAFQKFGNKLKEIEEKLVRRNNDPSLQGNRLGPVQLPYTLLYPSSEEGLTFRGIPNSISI
The assay is described as follows: Effect on 15-LO catalysed oxidation of arachidonic acid. It counts as biochemical, soybean.

The target of assay [2] is T1, 15-LO. The assay is described as follows: 15-LO catalysed oxidation of the nitro compounds (substrate test). The note with it: for Substrate for 15-LO: pH 9.0 buffer, UV 234 nm. Format: biochemical, soybean. On the procedure:
(§1) Based on this consideration, 5-LO, 12-LO and 15-LO catalysed oxidation of the nitro compounds (4a, 4b, 6a, 6b, 8a and 8b) was investigated. Each of the nitro compounds was treated with 15-LO in pH 9.0 buffer (or 5-LO in pH 6.3 buffer and 12-LO in pH 7.4 buffer), and the formation of 15-hydroperoxy derivatives (or 5-hydroperoxy or 12-hydroperoxy derivatives) over time was monitored by UV spectroscopy at 234 nm.

The target of the next assay is T2, 12-LO (Sus scrofa, UniProt P16469).
T2 construct: purchased Cayman Chemical Company
T2 sequence (P16469 1-663): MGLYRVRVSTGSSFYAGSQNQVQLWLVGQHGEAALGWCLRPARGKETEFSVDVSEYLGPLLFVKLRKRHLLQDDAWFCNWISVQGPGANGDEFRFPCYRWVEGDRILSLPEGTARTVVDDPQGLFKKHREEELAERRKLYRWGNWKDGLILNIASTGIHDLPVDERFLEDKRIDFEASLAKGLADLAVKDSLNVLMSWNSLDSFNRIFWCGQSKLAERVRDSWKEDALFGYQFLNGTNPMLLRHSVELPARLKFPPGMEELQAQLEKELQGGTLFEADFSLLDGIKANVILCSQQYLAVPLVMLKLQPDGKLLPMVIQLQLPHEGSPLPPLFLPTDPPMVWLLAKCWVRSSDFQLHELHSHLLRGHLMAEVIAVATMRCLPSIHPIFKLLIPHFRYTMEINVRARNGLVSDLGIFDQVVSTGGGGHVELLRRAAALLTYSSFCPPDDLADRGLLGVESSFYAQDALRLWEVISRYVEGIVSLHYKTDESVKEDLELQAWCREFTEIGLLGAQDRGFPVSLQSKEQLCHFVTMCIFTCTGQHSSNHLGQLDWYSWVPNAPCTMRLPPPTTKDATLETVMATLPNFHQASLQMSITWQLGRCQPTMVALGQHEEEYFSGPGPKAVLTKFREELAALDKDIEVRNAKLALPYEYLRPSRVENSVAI
The assay is described as follows: 12-LO catalysed oxidation of the nitro compounds (substrate test). Format: biochemical, porcine. The note with it: pH 7.4 buffer, UV 234 nm. On the procedure: as §1

The test system of the next assay is human neutrophils. Briefly: AA-enhanced chemiluminescence in human neutrophils. It counts as cell-based. The note with it: neutrophils pretreated with compound. The protocol: Arachidonic acid (AA) is a natural agonist which stimulates oxygen radical production in neutrophils leading to tissue damage during inflammation. Studies were conducted to examine whether or not the Lx compounds could antagonise the effects of AA. Neutrophils were pretreated with Lx compounds and then examined for chemiluminescence response to AA addition. […] The effect of Lx compounds on AA-enhanced chemiluminescence in human neutrophils is shown graphically in FIG. 11.

Where [3] appears, read: listed as (all-Z)-4-nitrotricosa-8,11,14,17-tetraenoic acid.

On to `CCCCC/C=C\C/C=C\C/C=C\C/C=C\CCCC(CCC(=O)O)[N+](=O)[O-]` (stereo not drawn) [Lx7, (a11-Z)-4-Nitrotricosa-8,11,14,17-tetraenoic acid], for which the “Effect on 15-LO catalysed oxidation of AA” value at 15-LO [1] is listed as “Substrate”. The “Vmax for 15-LO catalysed oxidation of the compound” value on 15-LO [2] (Lineweaver Burke) was “Vmax = 24.48 μM/min”; on 15-LO [2] (Lineweaver Burke, listed as 6b), 24.48 µM/min. Moreover, the Km (commonly the concentration of substrate that gives half-maximal velocity) at 15-LO [2] (Lineweaver Burke, read-out: Km for 15-LO catalysed oxidation of the compound) turned out to be 8.4 µM. The “Substrate for 15-LO” value on 15-LO [2] (listed as 6b) was “substrate”; on 15-LO [2] (setting [3]) it was “good substrate”. For the same compound, the results for the “Substrate for 12-LO” value at 12-LO (listed as 6b) and on 12-LO (setting [3]) were “substrate” and “good substrate”, respectively. Moreover, the “Inhibition of AA-stimulated oxygen radical production (chemiluminescence)” value in the assay on human neutrophils is listed as “particularly evident”.

The values above are taken from patent US6924309B2 (Children, Youth and Women's Health Service Incorporated, priority 1999, dated 2005).
